# US7674909B2, “Tetrahydroquinoline derivatives and their use as FSH receptor modulators” (N.V. Organon, priority 2002, dated 2010)
# Molecular target: T1, human FSH receptor (Homo sapiens, UniProt P23945)
# T1 construct: expressed in transfected cells; host or cells: Chinese Hamster Ovary (CHO) cells, stably transfected, cotransfected with a CRE-luciferase reporter
# T1 sequence (P23945 18-695): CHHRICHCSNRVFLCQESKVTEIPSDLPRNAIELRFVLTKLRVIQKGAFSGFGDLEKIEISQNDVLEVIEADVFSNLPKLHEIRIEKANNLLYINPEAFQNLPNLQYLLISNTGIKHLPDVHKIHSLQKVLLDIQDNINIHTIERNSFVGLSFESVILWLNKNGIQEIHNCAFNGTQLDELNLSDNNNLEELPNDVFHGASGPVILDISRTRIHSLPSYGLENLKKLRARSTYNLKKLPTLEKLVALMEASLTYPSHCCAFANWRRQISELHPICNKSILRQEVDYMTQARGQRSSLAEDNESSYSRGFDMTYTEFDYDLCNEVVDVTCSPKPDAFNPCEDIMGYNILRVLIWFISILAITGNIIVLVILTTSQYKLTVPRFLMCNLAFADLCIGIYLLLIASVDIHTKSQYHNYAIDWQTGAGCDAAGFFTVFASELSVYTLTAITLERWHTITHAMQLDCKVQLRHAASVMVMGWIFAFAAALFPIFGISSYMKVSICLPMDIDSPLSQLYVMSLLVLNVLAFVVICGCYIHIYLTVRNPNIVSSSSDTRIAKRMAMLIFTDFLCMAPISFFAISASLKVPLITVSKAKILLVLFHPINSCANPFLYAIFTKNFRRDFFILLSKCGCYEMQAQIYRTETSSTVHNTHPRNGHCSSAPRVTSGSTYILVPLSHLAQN
# Test: CHO-FSH in vitro bioactivity (CRE-luciferase reporter, agonistic or antagonistic set-up)
# Assay type: cell-based
# Conditions: CHO cells stably transfected with human FSH receptor and CRE/luciferase reporter; in either an agonistic or an antagonistic (rec-hFSH 10 mU/ml) assay set-up or both / in at least one of the assays; read-out: EC50 (IC50)
# Procedure: FSH activity of compounds were tested in Chinese Hamster Ovary (CHO) cells stably transfected with the human FSH receptor and cotransfected with a cAMP responsive element (CRE)/promotor directing the expression of a firefly luciferase reporter gene. Binding of ligand to the Gs-coupled FSH receptor will result in an increase of cAMP, which in turn will induce an increased transactivation of the luciferase reporter construct. To test antagonistic properties recombinant FSH in a concentration that induces approximately 80% of the maximal stimulation of cAMP accumulation in the absence of test compound was added (rec-hFSH; 10 mU/ml). The luciferase signal was quantified using a luminescence counter. For test compounds, EC50 values (concentration of test compound causing half-maximal (50%) stimulation or reduction) were calculated. For that purpose the software program GraphPad PRISM, version 3.0 (GraphPad software Inc., San Diego) was used.
row,Structure (SMILES),EC50
1,"CC(=O)N1c2ccc(NC(=O)c3ccc(-c4ccccc4)cc3)cc2C(C)(c2ccc(OCc3ccncc3)cc2)CC1(C)C (stereo not drawn) [Example 7, Biphenyl-4-carboxylic acid {1-acetyl-2,2,4-trimethyl-4-[4-(pyridin-4-ylmethoxy)-phenyl]-1,2,3,4-tetrahydro-quinolin-6-yl}-amide]",< 0.1 µM
2,"CC(=O)N1c2ccc(NC(=O)c3ccc(-c4ccccc4)cc3)cc2C(C)(c2ccc(OCc3ccccn3)cc2)CC1(C)C (stereo not drawn) [Example 4, Biphenyl-4-carboxylic acid {1-acetyl-2,2,4-trimethyl-4-[4-(pyridin-2-ylmethoxy)-phenyl]-1,2,3,4-tetrahydro-quinolin-6-yl}-amide]",< 0.1 µM
3,"CC(=O)N1c2ccc(NC(=O)c3ccc(-c4ccccc4)cc3)cc2C(C)(c2ccc(OCCCN3CCOCC3)cc2)CC1(C)C (stereo not drawn) [Example 3, Biphenyl-4-carboxylic acid {1-acetyl-2,2,4-trimethyl-4-[4-(3-morpholin-4-yl-propoxy)-phenyl]-1,2,3,4-tetrahydro-quinolin-6-yl}-amide]",< 0.1 µM
4,"CC(=O)N1c2ccc(NC(=O)c3ccc(Br)cc3)cc2C(C)(c2ccc(OCCN3CCOCC3)cc2)CC1(C)C (stereo not drawn) [Example 39, N-{1-Acetyl-2,2,4-trimethyl-4-[4-(2-morpholin-4-yl-ethoxy)-phenyl]-1,2,3,4-tetrahydro-quinolin-6-yl}-4-bromo-benzamide]",< 0.1 µM
5,"CC(=O)N1c2ccc(NC(=O)c3ccccc3)cc2C(C)(c2ccc(OCCN3CCOCC3)cc2)CC1(C)C (stereo not drawn) [Example 36, N-{1-Acetyl-2,2,4-trimethyl-4-[4-(2-morpholin-4-yl-ethoxy)-phenyl]-1,2,3,4-tetrahydro-quinolin-6-yl}-benzamide]",< 0.1 µM
6,"CC(=O)N1c2ccc(NC(=O)c3ccc(C(C)(C)C)cc3)cc2C(C)(c2ccc(OCCN3CCOCC3)cc2)CC1(C)C (stereo not drawn) [Example 37, N-{1-Acetal-2,2,4-trimethyl-4-[4-(2-morpholin-4-ethoxy)-phenyl]-1,2,3,4-tetrahydro-quinolin-6-yl}-4-tert-butyl-benzamide]",< 0.1 µM
7,"CC(=O)N1c2ccc(NC(=O)c3ccc(N(C)C)cc3)cc2C(C)(c2ccc(OCCN3CCOCC3)cc2)CC1(C)C (stereo not drawn) [Example 41, N-{1-Acetyl-2,2,4-trimethyl-4-[4-(2-morpholin-4-yl-ethoxy)-phenyl]-1,2,3,4-tetrahydro-quinolin-6-yl}-4-dimethylamino-benzamide]",< 0.1 µM
8,"CC(=O)N1c2ccc(NC(=O)c3cccc(C(F)(F)F)c3)cc2C(C)(c2ccc(OCCN3CCOCC3)cc2)CC1(C)C (stereo not drawn) [Example 42, N-{1-Acetyl-2,2,4-trimethyl-4-[4-(2-morpholin-4-yl-ethoxy)-phenyl]-1,2,3,4-tetrahydro-quinolin-6-yl}-3-trifluoromethyl-benzamide]",< 0.1 µM
9,CC(=O)N1c2ccc(NC(=O)c3ccc(-c4ccccc4)cc3)cc2C(C)(c2ccc(OCC(=O)NCc3ccco3)cc2)CC1(C)C (stereo not drawn) [Example 16],< 0.1 µM
